“Also recorded” adds a separate entry of the source.
Tests used:
Arabidopsis thaliana [1] = experiment: Gene expression profiling (22,000 gene array) of sprayed Arabidopsis (MOA1); format: in vivo; conditions: for No. of Lethal Genes Altered / gene expression perturbations compared to the other treatments: 1 hr
Magnaporthe grisea = format: cell-based
Arabidopsis thaliana [2] = experiment: Biochemical (metabolite) profiling by LC-MS and GC-MS of sprayed Arabidopsis (MOA1); format: in vivo
[3] = system: Saccharomyces cerevisiae wild type strain BY4743; experiment: Combined gene expression and metabolite data mapped to KEGG reactions and pathways (AF1); format: cell-based; conditions: yeast
From the text: In AF1, two different technologies were utilized: gene expression analysis (for examination of mRNA expression) and metabolite analysis. […] As noted previously, existing metabolic databases may be helpful in practicing the methods and systems of the present invention, but many databases include limitations that make their use in data analysis and pathway mapping less than straightforward. […] This caveat to KEGG makes it difficult to pinpoint the correct pathway when attempting to link a gene to a specific pathway. […] The pathway score indicates how meaningful the mapping is, or how likely it is to be correctly indicative of the pathway involved in the perturbation under examination. The method provides a pathway score based on perturbation levels of genes. and/or compounds and the information content of each gene and/or compound in the pathway, i.e., a pathway score indicates the extent to which other pathways are mapped to a gene/compound. For example, imagine that two genes are perturbed in a particular experiment. One gene maps to only one pathway, giving a high degree of probability that the perturbed pathway is the one identified in the mapping. The second gene maps to three pathways. In the later example, there is only one-third the probability that the pathway identified in the mapping is the one perturbed. The present invention provides a method for calculating the pathway scores, so that more weight is given to a score of a gene or compound that maps to only one pathway than to a score of a gene or compound that maps to multiple pathways. […] Where n=the total number of genes in the pathway; ipath—count=the number of pathways containing a gene; and j=the number of genes in the pathway that are perturbed. Another factor to be considered when weighting a pathway score is the degree of perturbation. Degree of perturbation can be calculated, for example, based on a number of standard deviations from a norm, and included in an equation such as the one shown above, so that not only the number of pathways is taken into account, but also accounts for the amount of gene transcript or compound present as compared to a control. Compounds were also linked to pathways using the KEGG database. KEGG links 676 compounds measured in AF1 to a total of 92 pathways. Of the 676 compounds under consideration, 77 were detected in the AF1 samples. […] The multiple mapping feature of KEGG makes it difficult to pinpoint the correct pathway when trying to link a compound to a specific pathway. […] A pathway score calculation is applied to the compounds to account for both information content (number of pathways a compound maps to) and perturbation level. […]

[4] = system: Arabidopsis thaliana plants; experiment: Phenotypic analysis of herbicide-treated Arabidopsis plants (SOA1); format: in vivo; conditions: for leafCurling (Dev.) / leafTwisting (Dev.) / leafWidth (Dev.) / matureLeafAnthocyanins (Dev.) / matureLeafChlorosis (Dev.) / matureLeafNecrosis (Dev.) / newLeafAnthocyanins (Dev.) / newLeafChlorosis (Dev.) / newLeafNecrosis (Dev.) / pointedLeaves (Dev.) / tMic (Dev.): SOA1, numeric value standardized to mock treated; for Symptom Class: three-week-old Arabidopsis plants treated with herbicide, phenotypes of FIG. 12
Arabidopsis plants = conditions: nitrate addition to N-starved Arabidopsis plants; cited from earlier work
[5] = concentrations insufficient to inhibit growth

Structure (SMILES): COc1nc(C)nc(NC(=O)NS(=O)(=O)c2ccccc2Cl)n1 [Chlorsulfuron]
- No. of Lethal Genes Altered (Arabidopsis thaliana [1]): 8

Structure (SMILES): CS(=O)(=O)c1cc(C(F)(F)F)ccc1C(=O)c1cnoc1C1CC1 [Isoxaflutole]
- No. of Lethal Genes Altered (Arabidopsis thaliana [1]): 15
- M. grisea growth in minimal media (Magnaporthe grisea; [5]): unaffected
- M. grisea growth in minimal plus tyrosine media (Magnaporthe grisea; [5]): inhibited
- tyrosine and phenylalanine relative to the control (Arabidopsis thaliana [2]; Arabidopsis, after one hour): up-regulated; also recorded: began to accumulate
- Alpha-tocopherol levels relative to the control (Arabidopsis thaliana [2]; Arabidopsis, early time points): not significantly changed

Structure (SMILES): OC(Cn1cncn1)(Cn1cncn1)c1ccc(F)cc1F [Fluconazole]
- # Reactions (Number Of Pathways Having at Least One Enzyme and One Compound Perturbed) [3]: 15

Structure (SMILES): CC(=O)N1CCN(c2ccc(OCC3COC(Cn4ccnc4)(c4ccc(Cl)cc4Cl)O3)cc2)CC1 (stereo not shown) [Ketoconazole]
- # Reactions (Number Of Pathways Having at Least One Enzyme and One Compound Perturbed) [3]: 24

Structure (SMILES): CNc1cnn(-c2cccc(C(F)(F)F)c2)c(=O)c1Cl [Norfluazon, Norflurazon]
- stress-related metabolites observed (Arabidopsis thaliana [2]; MOA1, 20 min and 1 hr): Only a few, if any

Structure (SMILES): CC(C)C1(C)N=C(c2ncccc2C(=O)O)NC1=O (stereo not shown) [Imazapyr]
- stress-related metabolites observed (Arabidopsis thaliana [2]; MOA1, 20 min and 1 hr): Only a few, if any

Structure (SMILES): COC(=O)NS(=O)(=O)c1ccc(N)cc1 [Asulam]
- No. of Lethal Genes Altered (Arabidopsis thaliana [1]): 5
- gene expression perturbations compared to the other treatments (Arabidopsis thaliana [1]): fewest gene expression perturbations

Structure (SMILES): CP(=O)(O)CCC(N)C(=O)O (stereo not shown) [Glufosinate]
- No. of Lethal Genes Altered (Arabidopsis thaliana [1]): 10
- Regulated Genes Following Herbicide Treatment: Down (Arabidopsis thaliana [1]; in vivo): 54
- nitrogen sources M. grisea is able to utilize in the presence of the compound (Magnaporthe grisea): only able to utilize glutamine and glutamate
- leafCurling (Dev.) [4]: 2
- leafTwisting (Dev.) [4]: 1
- leafWidth (Dev.) [4]: −2
- matureLeafAnthocyanins (Dev.) [4]: 0
- matureLeafChlorosis (Dev.) [4]: 3
- matureLeafNecrosis (Dev.) [4]: 0
- newLeafAnthocyanins (Dev.) [4]: 0
- newLeafChlorosis (Dev.) [4]: 3
- newLeafNecrosis (Dev.) [4]: 0
- pointedLeaves (Dev.) [4]: 1
- tMic (Dev.) [4]: 1
- Symptom Class [4]: 3
- stress-related metabolites observed (Arabidopsis thaliana [2]; in vivo): Only a few, if any

Structure (SMILES): O=C(O)CNCP(=O)(O)O [Glyphosate]
- growth results of Unknown 4 and glyphosate compared (Magnaporthe grisea): nearly identical
- Growth inhibition of M. grisea on inclusion of aromatic amino acids to the media (Magnaporthe grisea; 1.0 mg/ml): remediated
- Growth of M. grisea with ammonium or glutamine as nitrogen source (Magnaporthe grisea; Tier 4): Little growth defect
- leafCurling (Dev.) [4]: 0
- leafTwisting (Dev.) [4]: 0
- leafWidth (Dev.) [4]: 0
- matureLeafAnthocyanins (Dev.) [4]: 3
- matureLeafChlorosis (Dev.) [4]: 1
- matureLeafNecrosis (Dev.) [4]: 3
- newLeafAnthocyanins (Dev.) [4]: 1
- newLeafChlorosis (Dev.) [4]: 2
- newLeafNecrosis (Dev.) [4]: 0
- pointedLeaves (Dev.) [4]: 1
- tMic (Dev.) [4]: 2
- Symptom Class [4]: 4
- tyrosine (metabolite downstream from the SOA) relative to the control (Arabidopsis thaliana [2]; in vivo): decreased

Structure (SMILES): O=[N+]([O-])O [Nitrate]
- Nitrate Regulation of Glutamate synthetase gene (Arabidopsis plants): ↑
- Nitrate Regulation of Glutamine synthetase (2) genes (Arabidopsis plants): ↑
- Nitrate Regulation of MADs Box (2) genes (Arabidopsis plants): ↓
- Nitrate Regulation of MYB transcription factor gene (Arabidopsis plants): ↑
- Nitrate Regulation of Malate Dehydrogenase gene (Arabidopsis plants): ↑
- Nitrate Regulation of Nitrate transporter gene (Arabidopsis plants): ↑
- Nitrate Regulation of Phosphate transporter gene (Arabidopsis plants): ↑
- Nitrate Regulation of Transaldolase gene (Arabidopsis plants): ↑
- Nitrate Regulation of Transketolase gene (Arabidopsis plants): ↑

Structure (SMILES): c1cc[n+]2c(c1)-c1cccc[n+]1CC2 [Diquat]
- leafCurling (Dev.) [4]: 2
- leafTwisting (Dev.) [4]: 0
- leafWidth (Dev.) [4]: −2
- matureLeafAnthocyanins (Dev.) [4]: 0
- matureLeafChlorosis (Dev.) [4]: 1
- matureLeafNecrosis (Dev.) [4]: 4
- newLeafAnthocyanins (Dev.) [4]: 0
- newLeafChlorosis (Dev.) [4]: 1
- newLeafNecrosis (Dev.) [4]: 4
- pointedLeaves (Dev.) [4]: 1
- tMic (Dev.) [4]: 2
- Symptom Class [4]: 7

Structure (SMILES): O=C(O)c1ccccc1C(=O)Nc1cccc2ccccc12 [Naptalam]
- No. of Lethal Genes Altered (Arabidopsis thaliana [1]): 3
- gene expression perturbations compared to the other treatments (Arabidopsis thaliana [1]): fewest gene expression perturbations
- Regulated Genes Following Herbicide Treatment: Down (Arabidopsis thaliana [1]; in vivo): 47
- Regulated Genes Following Herbicide Treatment: Up (Arabidopsis thaliana [1]; in vivo): 50

Structure (SMILES): CN(C)C(=O)Nc1ccc(Cl)c(Cl)c1 [Diuron]
- leafCurling (Dev.) [4]: 1
- leafTwisting (Dev.) [4]: 0
- leafWidth (Dev.) [4]: −2
- matureLeafAnthocyanins (Dev.) [4]: 0
- matureLeafChlorosis (Dev.) [4]: 2
- matureLeafNecrosis (Dev.) [4]: 4
- newLeafAnthocyanins (Dev.) [4]: 0
- newLeafChlorosis (Dev.) [4]: 2
- newLeafNecrosis (Dev.) [4]: 4
- pointedLeaves (Dev.) [4]: 1
- tMic (Dev.) [4]: 1
- Symptom Class [4]: 7

Structure (SMILES): O=C(O)COc1ccc(Cl)cc1Cl [2,4-D]
- leafCurling (Dev.) [4]: 1
- leafTwisting (Dev.) [4]: 2
- leafWidth (Dev.) [4]: −1
- matureLeafAnthocyanins (Dev.) [4]: 1
- matureLeafChlorosis (Dev.) [4]: 2
- matureLeafNecrosis (Dev.) [4]: 0
- newLeafAnthocyanins (Dev.) [4]: 0
- newLeafChlorosis (Dev.) [4]: 1
- newLeafNecrosis (Dev.) [4]: 0
- pointedLeaves (Dev.) [4]: 0
- tMic (Dev.) [4]: 2
- Symptom Class [4]: 5

Structure (SMILES): C[n+]1ccc(-c2cc[n+](C)cc2)cc1 [Paraquat]
- Symptom Class [4]: 7
